Tests used:
Type in all cases: functional
Design in all cases: scale not given: the % may be the effect or the level left
[1] = tested on: Mycobacterium tuberculosis; assay: Antitubercular activity against Mycobacterium tuberculosis H37Rv assessed as reduction in RLU at 100 ug/mL after 72 hrs by luciferase reporter phage assay
[2] = tested on: Mycobacterium tuberculosis; assay: Antitubercular activity against Mycobacterium tuberculosis H37Rv assessed as reduction in RLU at 500 ug/mL after 72 hrs by luciferase reporter phage assay
[3] = tested on: Mycobacterium tuberculosis; assay: Antitubercular activity against Mycobacterium tuberculosis H37Rv assessed as reduction in RLU at 0.5 ug/mL after 72 hrs by luciferase reporter phage assay
[4] = tested on: Mycobacterium tuberculosis; assay: Antitubercular activity against Mycobacterium tuberculosis H37Rv assessed as reduction in RLU at 2 ug/mL after 72 hrs by luciferase reporter phage assay

SMILES | Activity [1] [%] | Activity [2] [%] | Activity [3] [%] | Activity [4] [%]
COc1ccc(-c2[nH]c(=O)[nH]c(=O)c2C#N)cc1O | 33.4 | 48.72 | – | –
NNC(=O)c1ccncc1 [ISONIAZID] | – | – | 98.42 | –
N#Cc1c(-c2ccc(Cl)cc2)[nH]c(=S)[nH]c1=O | 46.21 | 65.23 | – | –
N#Cc1c(-c2ccc(F)cc2)[nH]c(=O)[nH]c1=O | 46.49 | 44.2 | – | –
N#Cc1c(-c2cccc(Cl)c2)[nH]c(=O)[nH]c1=O | 54.28 | 61.02 | – | –
N#Cc1c(-c2ccc(Br)cc2)[nH]c(=S)[nH]c1=O | 75.73 | 82.04 | – | –
CO[C@H]1/C=C/O[C@@]2(C)Oc3c(C)c(O)c4c(O)c(c(/C=N/N5CCN(C)CC5)c(O)c4c3C2=O)NC(=O)/C(C)=C\C=C\[C@H](C)[C@H](O)[C@@H](C)[C@@H](O)[C@@H](C)[C@H](OC(C)=O)[C@@H]1C [RIFAMPIN] | – | – | – | 82.58

— ChEMBL document CHEMBL2203181, “Microwave-assisted synthesis, molecular docking and antitubercular activity of 1,2,3,4-tetrahydropyrimidine-5-carbonitrile derivatives” (2012)
